Test [1] deals with T1, human glucocorticoid receptor (GR) complex (Homo sapiens, UniProt P04150).
T1 construct: made in house; host or cells: insect cells (baculovirus expression); used as crude lysate
T1 sequence (P04150 1-777): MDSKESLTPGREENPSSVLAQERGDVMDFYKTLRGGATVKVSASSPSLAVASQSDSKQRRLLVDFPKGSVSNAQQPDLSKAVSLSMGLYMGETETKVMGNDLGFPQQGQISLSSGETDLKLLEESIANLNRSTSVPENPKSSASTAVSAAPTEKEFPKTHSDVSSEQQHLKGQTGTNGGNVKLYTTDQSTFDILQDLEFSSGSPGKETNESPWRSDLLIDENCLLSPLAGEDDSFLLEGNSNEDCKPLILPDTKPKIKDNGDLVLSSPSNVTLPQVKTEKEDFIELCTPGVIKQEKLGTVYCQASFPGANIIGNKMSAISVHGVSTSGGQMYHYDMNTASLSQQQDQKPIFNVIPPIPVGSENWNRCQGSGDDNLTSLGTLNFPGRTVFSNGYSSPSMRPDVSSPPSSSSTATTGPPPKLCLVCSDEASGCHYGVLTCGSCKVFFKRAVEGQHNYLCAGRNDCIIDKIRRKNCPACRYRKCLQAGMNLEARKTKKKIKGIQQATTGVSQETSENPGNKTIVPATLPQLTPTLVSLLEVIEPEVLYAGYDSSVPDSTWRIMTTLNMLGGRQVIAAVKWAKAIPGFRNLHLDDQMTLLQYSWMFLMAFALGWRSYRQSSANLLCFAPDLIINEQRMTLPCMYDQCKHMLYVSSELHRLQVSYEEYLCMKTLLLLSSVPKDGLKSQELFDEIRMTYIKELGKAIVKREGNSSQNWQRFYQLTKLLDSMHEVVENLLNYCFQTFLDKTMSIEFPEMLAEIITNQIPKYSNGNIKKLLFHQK
In words: Glucocorticoid receptor competitive binding assay (fluorescence polarization). As to conditions: competition with TAMRA-labeled dexamethasone, GR-containing baculovirus lysate, 1 hour at room temperature. How it is done: Compounds of the invention were evaluated for binding to the steroid receptor by a fluorescence polarization competitive binding assay. Detailed descriptions for preparation of recombinant glucocorticoid receptor (GR) complex used in the assay is described in U.S. Patent Application Publication No. US 2003/0017503, filed May 20, 2002, and incorporated herein by reference in its entirety. Preparation of the tetramethylrhodamine (TAMRA)-labeled dexamethasone probe was accomplished using a standard literature procedure (M. Pons et al., J. Steroid Biochem., 1985, 22, pp. 267-273).
The affinity of the probe for the steroid receptor was then determined in a titration experiment. The fluorescence polarization value of the probe in assay buffer was measured on an SLM-8100 fluorometer using the excitation and emission maximum values described above. Aliquots of expression vector lysate were added and fluorescence polarization was measured after each addition until no further change in polarization value was observed. Non-linear least squares regression analysis was used to calculate the dissociation constant of the probe from the polarization values obtained for lysate binding to the probe.
This assay uses fluorescence polarization (FP) to quantitate the ability of test compounds to compete with tetramethylrhodamine (TAMRA)-labeled dexamethasone for binding to a human glucocorticoid receptor (GR) complex prepared from an insect expression system. The assay buffer was: 10 mM TES, 50 mM KCl, 20 mM Na2MoO4.2H2O, 1.5 mM EDTA, 0.04% w/v CHAPS, 10% v/v glycerol, 1 mM dithiothreitol, pH 7.4. Test compounds were dissolved to 1 mM in neat DMSO and then further diluted to 10× assay concentration in assay buffer supplemented with 10% v/v DMSO. Test compounds were serially diluted at 10× assay concentrations in 10% DMSO-containing buffer in 96-well polypropylene plates. Binding reaction mixtures were prepared in 96-well black Dynex microtiter plates by sequential addition of the following assay components to each well: 15 μL of 10× test compound solution, 85 μL of GR-containing baculovirus lysate diluted 1:170 in assay buffer, and 50 μL of 15 nM TAMRA-labeled dexamethasone. Positive controls were reaction mixtures containing no test compound; negative controls (blanks) were reaction mixtures containing 0.7 μM to 2 μM dexamethasone. The binding reactions were incubated for 1 hour at room temperature and then read for fluorescence polarization in the LJL Analyst set to 550 nm excitation and 580 nm emission, with the Rhodamine 561 dichroic mirror installed. IC50 values were determined by iterative non-linear curve fitting of the FP signal data to a 4-parameter logistic equation.
In general terms: Polarisation of emitted light reports the rotation of a fluorescent probe.

In test [2] the test system is glucocorticoid receptor. In words: Glucocorticoid receptor function, one or more of the above assays. The format is cell-based. To be noted: in one or more of the above assays, assay not specified. How it is done: Dexamethasone, a synthetic ligand to the glucocorticoid receptor (GR), induces expression of aromatase in human foreskin fibroblast cells. The activity of aromatase is measured by the conversion of testosterone to estradiol in culture media.
Human foreskin fibroblast cells (ATCC Cat. No. CRL-2429, designation CCD112SK) are plated on 96 well plates at 50,000 cells per well 5 days before use, in Iscove's Modified Dulbecco's Media (GibcoBRL Life Technologies Cat No. 12440-053) supplemented with 10% charcoal filtered FBS (Clonetech Cat No. SH30068) and Gentamycin (GibcoBRL Life Technologies Cat. No. 15710-064). On the day of the experiment, the media in the wells is replaced with fresh media. Cells are treated with test compounds to final concentrations of 10^−5 M to 10^−8 M, and testosterone to a final concentration of 300 ng/mL. Each well has a total volume of 100 μL. Samples are made in duplicates. […] Estradiol in the supernatant is measured using ELISA kits for estradiol (made by ALPCO, obtained from American Laboratory Products Cat. No. 020-DR-2693) according to the manufacture's instruction. […] The extent of aromatase induction by test compounds is expressed as a relative percentage to dexamethasone. […]
Human foreskin fibroblast cells (ATCC Cat. No. CRL-2429) are plated on 96 well plates at 5,000 cells per well the day before use, in Iscove's Modified Dulbecco's Media (GibcoBRL Life Technologies Cat. No. 12440-053) supplemented with 10% charcoal filtered FBS (Clonetech Cat. No. SH30068) and Gentamycin (GibcoBRL Life Technologies Cat. No. 15710-064). […] IL-6 levels in the supernatants are determined by the ELISA kits for IL-6 (MedSystems Diagnostics GmbH, Vienna, Austria, Cat. No. BMS213TEN) according to manufacture's instructions. […]
H4-II-E-C3 cells were incubated overnight in 96 well plates (20,000 cells/100 μL/well) in MEM medium containing 10% heat inactivated FBS and 1% nonessential amino acids. […] After 18 hours, the cells were lysed in a buffer containing 0.1% Triton X-100 and the TAT activity was measured in a photometric assay using tyrosine and alpha-ketoglutarate as substrates. […]

On to `Cc1cc(C)c(S(=O)(=O)NC(CSc2ncccc2C(F)(F)F)C(F)(F)F)c(C)c1` (centres unmarked) [2,4,6-Trimethyl-N-[2,2,2-trifluoro-1-(3-trifluoromethylpyridin-2-ylsulfanylmethyl)ethyl]benzenesulfonamide], for which the IC50 in test [1] was not above 100 nM.

For `Cc1cc(C)c(S(=O)(=O)NC(CSc2ccc([N+](=O)[O-])cn2)C(F)(F)F)c(C)c1` (centres unmarked) [2,4,6-Trimethyl-N-[2,2,2-trifluoro-1-(5-nitropyridin-2-ylsulfanylmethyl)ethyl]benzenesulfonamide], in test [1], the IC50 is not above 100 nM.

As to `Cc1cc(C)c(S(=O)(=O)NC(CNc2cccc3cnccc23)C(F)(F)F)c(C)c1` (centres unmarked) [2,4,6-Trimethyl-N-[2,2,2-trifluoro-1-(isoquinolin-5-ylaminomethyl)ethyl]benzenesulfonamide], the 50% inhibitory concentration (IC50) in test [1] was not above 100 nM.

In test [1], `Cc1cc(C)c(S(=O)(=O)NC(COc2cccc3cnccc23)C(F)(F)F)c(C)c1` (centres unmarked) [2,4,6-Trimethyl-N-[2,2,2-trifluoro-1-(isoquinolin-5-yloxymethyl)ethyl]benzenesulfonamide] yielded an IC50 not above 100 nM.

`Cc1cc(C)c(S(=O)(=O)NC(CSc2ccccn2)C(F)(F)F)c(C)c1` (centres unmarked) [2,4,6-Trimethyl-N-[2,2,2-trifluoro-1-(pyridin-2-ylsulfanylmethyl)ethyl]benzenesulfonamide] registered an IC50 in test [1] not above 100 nM.

With `Cc1cc(C)c(S(=O)(=O)NC(CNc2cccc3ncccc23)C(F)(F)F)c(C)c1` (centres unmarked) [2,4,6-Trimethyl-N-[2,2,2-trifluoro-1-(quinolin-5-ylaminomethyl)ethyl]benzenesulfonamide], in test [1], the IC50 was not above 100 nM.

`Cc1cc(C)c(S(=O)(=O)NC(COc2cccc3ncccc23)C(F)(F)F)c(C)c1` (centres unmarked) [2,4,6-Trimethyl-N-[2,2,2-trifluoro-1-(quinolin-5-yloxymethyl)ethyl]benzenesulfonamide] showed an IC50 in test [1] not above 100 nM.

For the compound `Cc1cc(C)c(S(=O)(=O)NC(CNc2cccc3ccc(C)nc23)C(F)(F)F)c(C)c1` (centres unmarked) [2,4,6-Trimethyl-N-{2,2,2-trifluoro-1-[(2-methylquinolin-8-ylamino)methyl]ethyl}benzenesulfonamide], the concentration for half-maximal inhibition (IC50) in test [1] is not above 100 nM.

In turn, `CC[C@@H](CNc1ccc2c(cnn2-c2ccc(F)cc2)c1)NS(=O)(=O)c1c(N)cc(Cl)cc1Cl` [2-Amino-4,6-dichloro-N—((S)-1-{[1-(4-fluorophenyl)-1H-indazol-5-ylamino]methyl}propyl)benzenesulfonamide] showed an IC50 in test [1] not above 100 nM. Besides, the “activity as an agonist of the glucocorticoid receptor function” value (“activity as an agonist” for short) in test [2] is reported as “shown activity as an agonist”.

As for `CC[C@@H](CNc1cccc2[nH]ccc12)NS(=O)(=O)c1c(N)cc(Cl)cc1Cl` [2-Amino-4,6-dichloro-N—{(S)-1-[(1H-indol-4-ylamino)methyl]propyl}benzenesulfonamide], in test [1], the IC50 is not above 100 nM. In addition, in test [2], the “activity as an agonist” value is recorded as “shown activity as an agonist”.

`Cc1cc(C)c(S(=O)(=O)NC(CSc2nc(C)cc(C(F)(F)F)c2C#N)C(F)(F)F)c(C)c1` (centres unmarked) [N-[1-(3-Cyano-6-methyl-4-trifluoromethylpyridin-2-ylsulfanylmethyl)-2,2,2-trifluoroethyl]-2,4,6-trimethylbenzenesulfonamide]: the IC50 in test [1] is not above 100 nM.

Turning to `CC[C@@H](CNc1ccc2c(cnn2-c2ccc(F)cc2)c1)NS(=O)(=O)c1c(C)cc(C)cc1C` [N—((S)-1-{[1-(4-Fluorophenyl)-1H-indazol-5-ylamino]methyl}propyl)-2,4,6-trimethylbenzenesulfonamide], the IC50 in test [1] is not above 100 nM.

Consider `CC[C@@H](CNc1cccc2[nH]ccc12)NS(=O)(=O)c1c(C)cc(C)cc1C` [N—{(S)-1-[(1H-Indol-4-ylamino)methyl]propyl}-2,4,6-trimethylbenzenesulfonamide], for which the 50% inhibitory concentration (IC50) in test [1] is not above 100 nM. Further, in test [2], the “activity as an agonist” value was “shown activity as an agonist”.

Turning to `CC[C@@H](CNc1cccc2cc[nH]c12)NS(=O)(=O)c1c(C)cc(C)cc1C` [N—{(S)-1-[(1H-Indol-7-ylamino)methyl]propyl}-2,4,6-trimethylbenzenesulfonamide], the half-inhibitory concentration (IC50) in test [1] is not above 100 nM.

The term IC50 denotes the concentration at which inhibition is half-maximal. Read a high IC50 as lower potency.

These data come from US20100063282A1, “Glucocorticoid Mimetics, Methods of Making Them, Pharmaceutical Compositions, and Uses Thereof” (BOEHRINGER INGELHEIM INTERNATIONAL GMBH, priority 2007, published 2010).
